Measurements published in the supplement of paper PMC10307832.

Legend:
Test in all cases: relative viability (nuclei count vs DMSO), 5 days (fraction); higher = more cells survive
NCI-H1915 = system: NCI-H1915
Summary of the method: (§1)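 Lung cancer cell lines were seeded in 1536-well plates and dosed by pin tool the next day, with either a single drug or a fixed anchor-drug dose combined with five library-drug doses (not always all listed) spaced in √10 steps. Five days later, one step fixed the cells and stained their nuclei (final 0.05% Triton X-100, 1% formaldehyde, 1 ug/ml Hoechst), and nuclei were counted on 4× images. Relative viability is the nuclei count in treated wells divided by the count in vehicle wells, and each value is the median of duplicate plates.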

NCI-H23 = system: NCI-H23
Summary of the method: as §1

NCI-H2228 = system: NCI-H2228
Summary of the method: as §1

NCI-H460 = system: NCI-H460
Summary of the method: as §1

CAL-12T = system: CAL-12T
Summary of the method: as §1

SK-LU-1 = system: SK-LU-1
Summary of the method: as §1

EMC-BAC-2 = system: EMC-BAC-2
Summary of the method: as §1

NCI-H1437 = system: NCI-H1437
Summary of the method: as §1

NCI-H1792 = system: NCI-H1792
Summary of the method: as §1

HCC-827 = system: HCC-827
Summary of the method: as §1

NCI-H1975 = system: NCI-H1975
Summary of the method: as §1

NCI-H1755 = system: NCI-H1755
Summary of the method: as §1

SW 1573 = system: SW 1573
Summary of the method: as §1

NCI-H727 = system: NCI-H727
Summary of the method: as §1

HOP-62 = system: HOP-62
Summary of the method: as §1

NCI-H2009 = system: NCI-H2009
Summary of the method: as §1

HCC-366 = system: HCC-366
Summary of the method: as §1

NCI-H1355 = system: NCI-H1355
Summary of the method: as §1

COR-L 105 = system: COR-L 105
Summary of the method: as §1

HARA = system: HARA
Summary of the method: as §1

A-427 = system: A-427
Summary of the method: as §1

NCI-H1395 = system: NCI-H1395
Summary of the method: as §1

`NC(=O)Nc1cc(-c2cccc(F)c2)sc1C(=O)N[C@H]1CCCNC1` [AZD7762] + CC1(C)CCC(c2ccc(Cl)cc2)=C(CN2CCN(c3ccc(C(=O)NS(=O)(=O)c4ccc(N[C@H](CCN5CCOCC5)CSc5ccccc5)c(S(=O)(=O)C(F)(F)F)c4)cc3)CC2)C1 [Navitoclax] (partner 0.5 µM) showed a relative viability (NCI-H1915; first compound 0.01 µM) of 0.783, a relative viability (NCI-H1915; first compound 0.03162 µM) of 0.78 and a relative viability (NCI-H1915; first compound 0.1 µM) of 0.784. The relative viability (NCI-H1915; first compound 0.3162 µM) was 0.806, the relative viability (NCI-H1915; first compound 1 µM) was 0.672 and the relative viability (NCI-H23; first compound 0.01 µM) was 0.983. For the same molecule, the relative viability (NCI-H23; first compound 0.03162 µM) was 0.886, the relative viability (NCI-H23; first compound 0.1 µM) was 0.905 and the relative viability (NCI-H23; first compound 0.3162 µM) was 0.783. The relative viability (NCI-H23; first compound 1 µM) was 0.464, the relative viability (NCI-H2228; first compound 0.01 µM) was 1 and the relative viability (NCI-H2228; first compound 0.03162 µM) was 0.552. It also gave a relative viability (NCI-H2228; first compound 0.1 µM) of 1, a relative viability (NCI-H2228; first compound 0.3162 µM) of 0.666 and a relative viability (NCI-H2228; first compound 1 µM) of 0.354. For the same molecule, the relative viability (NCI-H460; first compound 0.01 µM) was 1.25, the relative viability (NCI-H460; first compound 0.03162 µM) was 1.15 and the relative viability (NCI-H460; first compound 0.1 µM) was 1.11. It also gave a relative viability (NCI-H460; first compound 0.3162 µM) of 0.861, a relative viability (NCI-H460; first compound 1 µM) of 0.0845 and a relative viability (CAL-12T; first compound 0.01 µM) of 1.23. The relative viability (CAL-12T; first compound 0.03162 µM) was 1.18, the relative viability (CAL-12T; first compound 0.1 µM) was 1.24 and the relative viability (CAL-12T; first compound 0.3162 µM) was 1.09. It also gave a relative viability (CAL-12T; first compound 1 µM) of 0.169, a relative viability (SK-LU-1; first compound 0.01 µM) of 0.895 and a relative viability (SK-LU-1; first compound 0.03162 µM) of 0.649. The relative viability (SK-LU-1; first compound 0.1 µM) was 0.251, the relative viability (SK-LU-1; first compound 0.3162 µM) was 0.103 and the relative viability (SK-LU-1; first compound 1 µM) was 0.138. For the same molecule, the relative viability (EMC-BAC-2; first compound 0.01 µM) was 1.22, the relative viability (EMC-BAC-2; first compound 0.03162 µM) was 1.11 and the relative viability (EMC-BAC-2; first compound 0.1 µM) was 1.16. For the same molecule, the relative viability (EMC-BAC-2; first compound 0.3162 µM) was 1.18, the relative viability (EMC-BAC-2; first compound 1 µM) was 1.18 and the relative viability (NCI-H1437; first compound 0.01 µM) was 1.09. The relative viability (NCI-H1437; first compound 0.03162 µM) was 1.04, the relative viability (NCI-H1437; first compound 0.1 µM) was 1.07 and the relative viability (NCI-H1437; first compound 0.3162 µM) was 1.08. It also gave a relative viability (NCI-H1437; first compound 1 µM) of 1.05, a relative viability (NCI-H1792; first compound 0.01 µM) of 0.677 and a relative viability (NCI-H1792; first compound 0.03162 µM) of 0.686. It also gave a relative viability (NCI-H1792; first compound 0.1 µM) of 0.692, a relative viability (NCI-H1792; first compound 0.3162 µM) of 0.565 and a relative viability (NCI-H1792; first compound 1 µM) of 0.72. It also gave a relative viability (HCC-827; first compound 0.01 µM) of 1, a relative viability (HCC-827; first compound 0.03162 µM) of 0.918 and a relative viability (HCC-827; first compound 0.1 µM) of 0.991. For the same molecule, the relative viability (HCC-827; first compound 0.3162 µM) was 0.94, the relative viability (HCC-827; first compound 1 µM) was 0.93 and the relative viability (NCI-H1975; first compound 0.01 µM) was 1.03. The relative viability (NCI-H1975; first compound 0.03162 µM) was 0.953, the relative viability (NCI-H1975; first compound 0.1 µM) was 1.11 and the relative viability (NCI-H1975; first compound 0.3162 µM) was 0.938. The relative viability (NCI-H1975; first compound 1 µM) was 0.676, the relative viability (NCI-H1755; first compound 0.01 µM) was 1.03 and the relative viability (NCI-H1755; first compound 0.03162 µM) was 1.01. It also gave a relative viability (NCI-H1755; first compound 0.1 µM) of 1.08, a relative viability (NCI-H1755; first compound 0.3162 µM) of 1.08 and a relative viability (NCI-H1755; first compound 1 µM) of 0.622. The relative viability (SW 1573; first compound 0.01 µM) was 1.19, the relative viability (SW 1573; first compound 0.03162 µM) was 1.12 and the relative viability (SW 1573; first compound 0.1 µM) was 1.21. For the same molecule, the relative viability (SW 1573; first compound 0.3162 µM) was 0.764, the relative viability (SW 1573; first compound 1 µM) was 0.887 and the relative viability (NCI-H727; first compound 0.01 µM) was 0.456. The relative viability (NCI-H727; first compound 0.03162 µM) was 0.54, the relative viability (NCI-H727; first compound 0.1 µM) was 0.397 and the relative viability (NCI-H727; first compound 0.3162 µM) was 0.318. It also gave a relative viability (NCI-H727; first compound 1 µM) of 0.111, a relative viability (HOP-62; first compound 0.01 µM) of 1.2 and a relative viability (HOP-62; first compound 0.03162 µM) of 1.03. The relative viability (HOP-62; first compound 0.1 µM) was 1.19, the relative viability (HOP-62; first compound 0.3162 µM) was 1.16 and the relative viability (HOP-62; first compound 1 µM) was 0.969. It also gave a relative viability (NCI-H2009; first compound 0.01 µM) of 1.27, a relative viability (NCI-H2009; first compound 0.03162 µM) of 1.19 and a relative viability (NCI-H2009; first compound 0.1 µM) of 1.25. The relative viability (NCI-H2009; first compound 0.3162 µM) was 1.13, the relative viability (NCI-H2009; first compound 1 µM) was 1.08 and the relative viability (HCC-366; first compound 0.01 µM) was 1.1. The relative viability (HCC-366; first compound 0.03162 µM) was 1.09, the relative viability (HCC-366; first compound 0.1 µM) was 1.06 and the relative viability (HCC-366; first compound 0.3162 µM) was 0.687. For the same molecule, the relative viability (HCC-366; first compound 1 µM) was 0.165, the relative viability (NCI-H1355; first compound 0.01 µM) was 0.879 and the relative viability (NCI-H1355; first compound 0.03162 µM) was 1.07. It also gave a relative viability (NCI-H1355; first compound 0.1 µM) of 0.946, a relative viability (NCI-H1355; first compound 0.3162 µM) of 1.01 and a relative viability (NCI-H1355; first compound 1 µM) of 0.914. The relative viability (COR-L 105; first compound 0.01 µM) was 0.694, the relative viability (COR-L 105; first compound 0.03162 µM) was 0.768 and the relative viability (COR-L 105; first compound 0.1 µM) was 0.671. The relative viability (COR-L 105; first compound 0.3162 µM) was 0.527, the relative viability (COR-L 105; first compound 1 µM) was 0.463 and the relative viability (HARA; first compound 0.01 µM) was 1.12. For the same molecule, the relative viability (HARA; first compound 0.03162 µM) was 1.15, the relative viability (HARA; first compound 0.1 µM) was 1.2 and the relative viability (HARA; first compound 0.3162 µM) was 1.12. The relative viability (HARA; first compound 1 µM) was 0.801, the relative viability (A-427; first compound 0.01 µM) was 0.951 and the relative viability (A-427; first compound 0.03162 µM) was 0.948. For the same molecule, the relative viability (A-427; first compound 0.1 µM) was 1.08, the relative viability (A-427; first compound 0.3162 µM) was 1.04 and the relative viability (A-427; first compound 1 µM) was 0.36. It also gave a relative viability (NCI-H1395; first compound 0.01 µM) of 1.27, a relative viability (NCI-H1395; first compound 0.03162 µM) of 1.66 and a relative viability (NCI-H1395; first compound 0.1 µM) of 1.41. For the same molecule, the relative viability (NCI-H1395; first compound 0.3162 µM) was 0.634 and the relative viability (NCI-H1395; first compound 1 µM) was 0.408.
